# Experimental data reported in PMC9510126, “Hydrophobicity is a key determinant in the activity of arginine-rich cell penetrating peptides” (Scientific Reports, 2022).
# “Also recorded” adds a separate entry of the source. Ends that are not written are not given here.
# Tested on: MDA-MB-231 cells
# Assay: Delivery of TMR-k5 probe into live cells (nuclear staining)
# Type: cell-based, human
# Conditions: MDA-MB-231, d(X)TAT at various concentrations + TMR-k5 20 μM, 1 h, fluorescence microscopy, biological triplicates
# Description: To test the relative delivery efficiency of the d(X)TAT peptides, the cell lines MDA-MB-231 (epithelial-like, human breast cancer, spindle-shaped) and Neuro-2a (mouse neuroblastoma with neuronal and amoeboid stem cell morphology) were chosen. These cell lines are routinely used in cancer research, neuroscience, and toxicology. In the context of this study, we rationalized that the distinct differences in origin and characteristics between MDA-MB-231 and Neuro-2a properties may be useful to assess the generality of the results obtained. MDA-MB-231 or Neuro-2a cells were incubated with d(X)TAT peptides at various concentrations and TMR-k5 (20 μM) for 1 h. Cells were then washed, incubated with the DNA stain Hoechst and the live/dead marker SYTOX green (or SYTOX blue), and imaged by fluorescence microscopy. The localization of TMR-k5 in individual nuclei was then assessed by measuring the overlap between TMR and Hoechst signals (Fig. 2, Figure S13). […] This is because, in our experience, dfTAT and dfTAT analogs display a threshold behavior where, below a certain endosomal concentration, endosomal leakage is not achieved. In contrast above this threshold most late endosomes are permeabilized. […] Our rationale was therefore to titrate cells with different concentrations of d(X)TAT agents, monitor how many cells display cytosolic/nuclear delivery of TMR-k5, and compare the different d(X)TAT peptides.
# MDA-MB-231 and Neuro2a cells obtained from ATCC (breast cancer-derived epithelial) were cultured in humidified atmosphere at 5% CO2 and 37 °C. Cells were seeded in plastic 48-well plates (Fisher) for quantitative analysis or 8-well Labtek II plates (Fisher) for qualitative imaging at 100× magnification. The cells were grown to 80–90% confluency in a 37 °C humidified atmosphere containing 5% CO2. Cells were washed three times with Leibovitz’s L15 media (L15) (Fisher). Cells were then incubated with peptide and 20 µM of the TMR-k5 pentalysine probe at 37 °C for 1 h. This was followed by washing the cells three times with L15 supplemented with heparin (Sigma-Aldrich) (1 mg/mL) and an extra L15 wash. […] Additionally, the cell permeable dye Hoechst 33342 (Thermo Fisher Scientific o) was used for nuclear staining. Cells were imaged using an EVOS FL Auto 2 inverted microscope (Thermo Fisher Scientific). The microscope is equipped with a heating chamber maintained at 37 °C. Images were acquired using bright field imaging and five fluorescence filter sets: CFP (Ex = 436 ± 10 nm, Em = 480 ± 20 nm), RFP (Ex = 560 ± 20 nm, Em = 630 ± 35 nm), FITC (Ex = 488 ± 10 nm Em = 520 ± 20 nm), DAPI (Ex = 350 ± 50 nm, Em = 460 ± 25 nm), […]. For image viewing and processing individual images, the Celleste 4.0 software (Thermo Fisher Scientific) was used. Nuclear regions in 20× images where identified using Hoechst staining (the quantification process is described in Figure S13). The intensity of these objects in the TMR channel was then determined using the Celleste software. Cells stained by the SYTOX or DRAQ dyes were considered dead and not counted as positive for delivery. Cells displaying a nuclear TMR-k5 fluorescence above the fluorescence threshold determined for TMR-k5 alone were considered positive for delivery (if excluding SYTOX or DRAQ7 stain, and if visually showing stained nucleoli for confirmation of intracellular localization). The percentage of cells positive for TMR-k5 nuclear staining was then calculated, using Hoechst-stained cells to count the total number of cells present. […] Instead, this assay quantifies the number of cells in which the nuclear fluorescence of TMR-k5 is above a detection threshold. This threshold is dependent on the microscope, imaging conditions, and the concentration of TMR-k5 used during incubation (Figure S13). The reproducibility of all the experiments was assessed by performing experiments with independent batches of cell cultures on three different days (i.e., biological triplicates). […]
substance,measurement,value
d(K(Ac))TAT: disulfide dimer of CXRKKRRQRRRG with X = lysine conjugated to an acetyl group (CK(Ac)RKKRRQRRRG-NH2; also: disulfide dimer),TMR-k5 delivery activity (cells with TMR-k5 nuclear staining),little to no TMR-k5 delivery is detected; also recorded: no detectable delivery activity; also recorded: does not have a delivery activity detectable
